The target in assay [1] is T1, Sucrase-isomaltase, intestinal (Rattus norvegicus, UniProt P23739). Description: Inhibition of rat intestinal sucrase assessed as release of p-nitrophenol using p-nitrophenyl glycoside as substrate by spectrometric assay.
For another assay, the system named is Prunus dulcis. Description: Inhibition of almond beta-glucosidase assessed as release of p-nitrophenol at 1000 uM using p-nitrophenyl glycoside as substrate by spectrometric assay relative to control.
Assay [2] concerns the target T2, Lysosomal alpha-glucosidase (Homo sapiens, UniProt P10253). Description: Inhibition of human lysosomal alpha glucosidase assessed as release of p-nitrophenol using p-nitrophenyl glycoside as substrate by spectrometric assay.
For assay [3], the target named is T1, Sucrase-isomaltase, intestinal. Description: Inhibition of rat intestinal isomaltase assessed as release of p-nitrophenol using p-nitrophenyl glycoside as substrate by spectrometric assay.
For assay [4], the species on record is Bos taurus. Description: Inhibition of bovine liver beta-glucosidase assessed as release of p-nitrophenol at 1000 uM using p-nitrophenyl glycoside as substrate by spectrometric assay relative to control.
The subject of the next assay is Saccharomyces cerevisiae. Description: Inhibition of yeast alpha-glucosidase assessed as release of p-nitrophenol at 1000 uM using p-nitrophenyl glycoside as substrate by spectrometric assay relative to control.
The target in assay [5] is Alpha-galactosidase (Coffea arabica) (UniProt Q42656). Description: Inhibition of coffee beans alpha-galactosidase assessed as release of p-nitrophenol at 1000 uM using p-nitrophenyl glycoside as substrate by spectrometric assay relative to control.
Assay [6] is described as follows: Inhibition of Escherichia coli beta-glucuronidase assessed as release of p-nitrophenol using p-nitrophenyl glycoside as substrate by spectrometric assay.
The test system of a further assay is Helix pomatia. Description: Inhibition of snail beta-mannosidase assessed as release of p-nitrophenol at 1000 uM using p-nitrophenyl glycoside as substrate by spectrometric assay relative control.
The next assay concerns Penicillium decumbens. Description: Inhibition of Penicillium decumbens alpha-L-rhamnosidase assessed as release of p-nitrophenol at 1000 uM using p-nitrophenyl glycoside as substrate by spectrometric assay relative to control.
Another assay is filed under the species Sus scrofa. Description: Inhibition of porcine kidney alpha-trehalase assessed as release of p-nitrophenol at 1000 uM using p-nitrophenyl glycoside as substrate by spectrometric assay relative to control.
Assay [7] is filed under the species Bos taurus. Description: Inhibition of bovine liver beta-glucronidase assessed as release of p-nitrophenol at 1000 uM using p-nitrophenyl glycoside as substrate by spectrometric assay relative to control.
The test system of another assay is Aspergillus niger. Description: Inhibition of Aspergillus niger amyloglucosidase assessed as release of p-nitrophenol at 1000 uM using p-nitrophenyl glycoside as substrate by spectrometric assay relative to control.
The species entered for assay [8] is Bos taurus. Description: Inhibition of bovine liver beta-galactosidase assessed as release of p-nitrophenol at 1000 uM using p-nitrophenyl glycoside as substrate by spectrometric assay relative to control.
Assay [9] deals with T3, Alpha-mannosidase (Canavalia ensiformis) (UniProt C0HJB3).
T3 sequence (whole entry): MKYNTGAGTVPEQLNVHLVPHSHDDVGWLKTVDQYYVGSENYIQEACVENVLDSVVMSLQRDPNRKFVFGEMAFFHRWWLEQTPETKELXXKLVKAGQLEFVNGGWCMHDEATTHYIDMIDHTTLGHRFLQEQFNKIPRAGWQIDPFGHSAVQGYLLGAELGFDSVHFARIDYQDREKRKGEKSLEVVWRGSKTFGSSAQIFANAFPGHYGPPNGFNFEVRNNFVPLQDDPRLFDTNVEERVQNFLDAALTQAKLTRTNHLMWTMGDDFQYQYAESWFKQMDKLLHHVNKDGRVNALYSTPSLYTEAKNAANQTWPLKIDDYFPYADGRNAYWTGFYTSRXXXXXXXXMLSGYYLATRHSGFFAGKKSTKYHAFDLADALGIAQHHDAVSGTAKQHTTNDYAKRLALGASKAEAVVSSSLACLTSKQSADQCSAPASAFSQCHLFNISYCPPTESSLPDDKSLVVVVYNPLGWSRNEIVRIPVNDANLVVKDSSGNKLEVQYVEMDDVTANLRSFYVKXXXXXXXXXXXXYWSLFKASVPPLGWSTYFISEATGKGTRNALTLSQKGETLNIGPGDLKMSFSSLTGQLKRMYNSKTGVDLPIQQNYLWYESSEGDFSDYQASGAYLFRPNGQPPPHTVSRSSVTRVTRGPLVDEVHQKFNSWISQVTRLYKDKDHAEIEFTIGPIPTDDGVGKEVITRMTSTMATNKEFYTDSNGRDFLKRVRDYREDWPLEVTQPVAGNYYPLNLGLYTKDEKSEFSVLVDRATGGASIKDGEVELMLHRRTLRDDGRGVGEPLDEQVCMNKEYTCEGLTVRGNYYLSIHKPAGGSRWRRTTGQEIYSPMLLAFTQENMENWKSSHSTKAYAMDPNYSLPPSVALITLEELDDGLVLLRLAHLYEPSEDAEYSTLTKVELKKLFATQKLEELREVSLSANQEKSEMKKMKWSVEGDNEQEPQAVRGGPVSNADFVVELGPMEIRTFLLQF
Description: Inhibition of jack bean alpha-mannosidase assessed as release of p-nitrophenol at 1000 uM using p-nitrophenyl glycoside as substrate by spectrometric assay relative to control.

The target of assay [10] is T4, Tissue alpha-L-fucosidase (Bos taurus) (UniProt Q2KIM0).
T4 sequence (whole entry): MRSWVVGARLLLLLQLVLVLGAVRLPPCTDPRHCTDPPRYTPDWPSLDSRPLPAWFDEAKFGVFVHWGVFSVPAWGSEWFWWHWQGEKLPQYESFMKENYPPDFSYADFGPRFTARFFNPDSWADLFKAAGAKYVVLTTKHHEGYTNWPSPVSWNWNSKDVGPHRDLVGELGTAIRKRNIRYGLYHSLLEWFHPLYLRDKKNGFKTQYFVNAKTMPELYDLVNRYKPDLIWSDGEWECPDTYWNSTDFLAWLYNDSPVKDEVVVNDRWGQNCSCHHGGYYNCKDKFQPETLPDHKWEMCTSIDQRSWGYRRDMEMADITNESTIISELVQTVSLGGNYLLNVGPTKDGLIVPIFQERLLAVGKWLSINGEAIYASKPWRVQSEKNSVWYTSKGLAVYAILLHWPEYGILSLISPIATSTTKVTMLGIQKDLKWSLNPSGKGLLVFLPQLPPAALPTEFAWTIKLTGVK
Description: Inhibition of bovine kidney alpha-L-fucosidase assessed as release of p-nitrophenol at 1000 uM using p-nitrophenyl glycoside as substrate by spectrometric assay relative to control.

Assay [11] in a line: Inhibition of rice alpha-glucosidase assessed as release of p-nitrophenol using p-nitrophenyl glycoside as substrate by spectrometric assay. On the set-up: species or system Oryza sativa.
A short description of assay [12]: Inhibition of bovine liver beta-galactosidase assessed as release of p-nitrophenol using p-nitrophenyl glycoside as substrate by spectrometric assay. Set-up: species or system Bos taurus.
The nature of assay [13]: Inhibition of yeast alpha-glucosidase assessed as release of p-nitrophenol using p-nitrophenyl glycoside as substrate by spectrometric assay. On the set-up: species or system Saccharomyces cerevisiae.
For the next assay, the system named is Escherichia coli. Description: Inhibition of Escherichia coli beta-glucuronidase assessed as release of p-nitrophenol at 1000 uM using p-nitrophenyl glycoside as substrate by spectrometric assay relative to control.
The nature of assay [14]: Inhibition of Aspergillus niger amyloglucosidase assessed as release of p-nitrophenol using p-nitrophenyl glycoside as substrate by spectrometric assay.
The nature of assay [15]: Inhibition of porcine kidney alpha-trehalase assessed as release of p-nitrophenol using p-nitrophenyl glycoside as substrate by spectrometric assay. On the set-up: species or system Sus scrofa.
Assay [16] is described as follows: Inhibition of bovine liver beta-glucosidase assessed as release of p-nitrophenol using p-nitrophenyl glycoside as substrate by spectrometric assay. On the set-up: species or system Bos taurus.
For another assay, the system named is Oryza sativa. Description: Inhibition of rice alpha-glucosidase assessed as release of p-nitrophenol at 1000 uM using p-nitrophenyl glycoside as substrate by spectrometric assay relative to control.
Assay [17] has as its target Sucrase-isomaltase, intestinal (Rattus norvegicus) (UniProt P23739). Description: Inhibition of rat intestinal sucrase assessed as release of p-nitrophenol at 1000 uM using p-nitrophenyl glycoside as substrate by spectrometric assay relative to control.
Assay [18] concerns the target T2, Lysosomal alpha-glucosidase. Description: Inhibition of human lysosomal alpha glucosidase assessed as release of p-nitrophenol at 1000 uM using p-nitrophenyl glycoside as substrate by spectrometric assay relative to control.

In general, IC50 refers to the concentration needed to halve the response being measured. One may read the inhibition as the relative decrease from the control value, in per cent.

Molecules are shown by their SMILES.

Sequence of Alpha-galactosidase (Coffea arabica) (Q42656 16-378 limits assumed): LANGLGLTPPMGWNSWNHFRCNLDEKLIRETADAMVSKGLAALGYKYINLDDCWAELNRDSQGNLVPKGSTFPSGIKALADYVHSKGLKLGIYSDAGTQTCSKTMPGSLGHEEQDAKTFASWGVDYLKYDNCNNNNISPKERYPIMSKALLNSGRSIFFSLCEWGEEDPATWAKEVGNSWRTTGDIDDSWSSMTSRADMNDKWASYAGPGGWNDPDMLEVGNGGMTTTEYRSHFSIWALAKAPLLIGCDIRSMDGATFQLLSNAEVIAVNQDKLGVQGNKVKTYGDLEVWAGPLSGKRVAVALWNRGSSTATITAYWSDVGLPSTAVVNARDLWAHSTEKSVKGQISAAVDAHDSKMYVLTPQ
T1 sequence (P23739 1-1013 limits assumed): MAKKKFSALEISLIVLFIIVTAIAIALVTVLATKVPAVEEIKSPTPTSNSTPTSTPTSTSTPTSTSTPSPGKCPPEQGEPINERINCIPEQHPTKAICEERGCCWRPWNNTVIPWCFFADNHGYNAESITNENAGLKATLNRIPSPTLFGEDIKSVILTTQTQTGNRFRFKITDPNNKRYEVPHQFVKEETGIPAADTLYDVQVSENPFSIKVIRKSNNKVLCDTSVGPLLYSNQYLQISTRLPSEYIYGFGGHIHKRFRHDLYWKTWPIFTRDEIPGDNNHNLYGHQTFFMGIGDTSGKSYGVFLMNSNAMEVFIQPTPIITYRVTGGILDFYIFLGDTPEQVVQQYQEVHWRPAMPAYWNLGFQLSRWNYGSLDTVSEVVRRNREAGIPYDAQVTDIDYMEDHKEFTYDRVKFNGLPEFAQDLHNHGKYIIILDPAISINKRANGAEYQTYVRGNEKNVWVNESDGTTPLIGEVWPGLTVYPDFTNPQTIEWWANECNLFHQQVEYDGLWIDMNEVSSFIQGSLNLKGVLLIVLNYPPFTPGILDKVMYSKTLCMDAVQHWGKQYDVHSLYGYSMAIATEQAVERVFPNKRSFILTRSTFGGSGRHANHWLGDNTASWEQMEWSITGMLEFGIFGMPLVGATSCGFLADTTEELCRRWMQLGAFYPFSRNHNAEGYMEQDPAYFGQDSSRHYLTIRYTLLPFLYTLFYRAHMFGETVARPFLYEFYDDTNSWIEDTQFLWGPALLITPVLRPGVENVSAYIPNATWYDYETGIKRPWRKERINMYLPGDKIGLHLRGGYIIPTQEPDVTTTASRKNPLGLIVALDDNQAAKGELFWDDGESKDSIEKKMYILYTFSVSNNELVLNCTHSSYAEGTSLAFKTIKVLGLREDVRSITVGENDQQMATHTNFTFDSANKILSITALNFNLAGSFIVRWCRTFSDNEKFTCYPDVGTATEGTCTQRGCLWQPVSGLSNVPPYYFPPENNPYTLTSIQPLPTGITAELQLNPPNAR
T1 sequence (P23739 1014-1841 limits assumed): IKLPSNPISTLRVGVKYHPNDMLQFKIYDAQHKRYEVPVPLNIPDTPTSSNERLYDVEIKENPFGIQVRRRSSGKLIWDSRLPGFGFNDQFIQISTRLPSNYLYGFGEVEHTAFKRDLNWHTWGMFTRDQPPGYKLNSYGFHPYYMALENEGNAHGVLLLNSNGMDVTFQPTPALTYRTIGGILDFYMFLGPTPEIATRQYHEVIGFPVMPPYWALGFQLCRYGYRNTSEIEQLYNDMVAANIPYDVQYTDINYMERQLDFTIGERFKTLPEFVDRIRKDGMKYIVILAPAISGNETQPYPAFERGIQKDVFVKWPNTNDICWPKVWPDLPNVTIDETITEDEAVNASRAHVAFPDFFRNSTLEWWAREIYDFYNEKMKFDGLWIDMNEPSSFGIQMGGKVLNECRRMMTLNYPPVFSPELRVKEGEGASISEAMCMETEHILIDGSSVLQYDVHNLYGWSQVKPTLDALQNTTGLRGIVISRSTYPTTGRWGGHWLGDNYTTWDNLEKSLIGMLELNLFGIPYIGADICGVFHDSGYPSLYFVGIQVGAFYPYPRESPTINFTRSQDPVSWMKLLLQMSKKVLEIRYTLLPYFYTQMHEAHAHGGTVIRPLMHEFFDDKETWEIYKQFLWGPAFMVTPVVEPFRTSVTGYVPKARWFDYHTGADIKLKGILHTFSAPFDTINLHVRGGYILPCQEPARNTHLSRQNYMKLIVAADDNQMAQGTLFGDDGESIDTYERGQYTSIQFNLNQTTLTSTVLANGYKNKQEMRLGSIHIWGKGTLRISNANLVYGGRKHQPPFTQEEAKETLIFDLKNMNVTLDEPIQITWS
Sequence of Sucrase-isomaltase, intestinal (Rattus norvegicus) (P23739 1-1013 limits assumed): as the sequence (P23739 1-1013 limits assumed) above
Sequence of Sucrase-isomaltase, intestinal (Rattus norvegicus) (P23739 1014-1841 limits assumed): as the sequence (P23739 1014-1841 limits assumed) above

On to `COc1ccc([C@@]2(CO)NC[C@H](O)[C@H]2O)cc1`, for which the IC50 was 0.33 µM in assay [1], 601 µM in assay [2] and 650 µM in assay [3]. For the same compound, the inhibition in the assay with Prunus dulcis stood at 7.1%; in the assay listed under Bos taurus [4], 43%.
Turning to `CCCC[C@]1(CO)NC[C@@H](O)[C@@H]1O`, the inhibition amounted to 32.7% with Saccharomyces cerevisiae; 4.6% in assay [5]; 8% in the assay on Prunus dulcis; 3.6% in the assay with Helix pomatia; 11.3% in the assay on Penicillium decumbens; 2.4% in the assay filed under Sus scrofa. For the same compound, the inhibition stood at 7.2% in the assay filed under Bos taurus [7]; 2% with Aspergillus niger; 36.9% in the assay listed under Bos taurus [8]; 1.9% in [9]; 20.8% in assay [10]; 34.3% in the assay listed under Bos taurus [4]. The IC50 in assay [1] was 2.3 µM; in assay [6], 774 µM; in assay [2], 79 µM; in assay [11] it was 59 µM.
With `CCCCCCCCC[C@]1(CO)NC[C@@H](O)[C@@H]1O`, the half-maximal inhibitory concentration (IC50) in assay [1] worked out at 455 µM; in [12], 477 µM; in assay [13], 116 µM; in assay [2], 130 µM; in assay [11], 727 µM. Moreover, the inhibition in [5] was found to be 2.5%; with Prunus dulcis, 6.8%; in the assay with Helix pomatia, 0%; with Penicillium decumbens, 0%; in the assay listed under Sus scrofa, 6.4%; in the assay filed under Bos taurus [7], 4.6%. For the same compound, the inhibition in the assay with Aspergillus niger is 3.9%; in assay [9], 0%; in assay [10], 0%; in the assay on Escherichia coli it was 31.6%; in the assay filed under Bos taurus [4], 49.2%.
As to `OC[C@H]1NC[C@@H](O)[C@@H]1O`, the inhibition in the assay on Helix pomatia, with Penicillium decumbens and in the assay filed under Bos taurus [8] was under 50% in each case. Also, the IC50 in [13] was found to be 0.15 µM; in assay [14], 362 µM; in assay [15], 4.8 µM; in [16], 638 µM.
As for `CCCC[C@@]1(CO)NC[C@H](O)[C@H]1O`, the IC50 in [1] worked out at 0.23 µM; in [2], 2.4 µM; in assay [16], 226 µM; in [3], 13 µM. Also, the inhibition with Prunus dulcis was 0.9%.
`CCCCCCCCC[C@@]1(CO)NC[C@H](O)[C@H]1O`: the IC50 in assay [1] came out at 0.68 µM; in assay [2], 3.7 µM; in assay [16], 430 µM; in [3], 113 µM. For the same compound, the inhibition with Prunus dulcis was found to be 0%.
As to `C[C@@]1(CO)NC[C@H](O)[C@H]1O`, the IC50 in [1] came out at 0.64 µM; in assay [2], 5.6 µM; in assay [16], 183 µM; in assay [3], 2 µM. Further, the inhibition in the assay on Prunus dulcis worked out at 6.2%.
Take `OC[C@@]1(c2ccccc2)NC[C@@H](O)[C@@H]1O`: the inhibition in the assay with Saccharomyces cerevisiae came to 22%; in assay [5] it was 9.9%; in the assay on Prunus dulcis, 2.3%; in the assay with Helix pomatia it was 0%; in the assay with Penicillium decumbens, 0%; with Oryza sativa, 18.6%. For the same compound, the inhibition came to 0.8% in the assay listed under Sus scrofa; 42.8% in assay [17]; 1.8% in the assay listed under Bos taurus [7]; 0% in the assay on Aspergillus niger; 35% in assay [18]; 34.1% in the assay listed under Bos taurus [8]. Also, the inhibition in assay [9] amounted to 0%; in [10] it was 0%; in the assay on Escherichia coli, 7.3%; in the assay filed under Bos taurus [4] it was 29.6%.
Take `OC[C@]1(c2ccccc2)NC[C@H](O)[C@H]1O`: the IC50 came to 0.48 µM in assay [1], 0.63 µM in assay [2], 71 µM in assay [16] and 32 µM in assay [3]. Further, the inhibition with Prunus dulcis came to 0.9%.

(Values after ChEMBL document CHEMBL5131499, “Design, synthesis and glycosidase inhibition of C-4 branched LAB and DAB derivatives” (Eur J Med Chem, 2022).)
